The source of these data is patent US12285459B2, “Saposin-A derived peptides and uses thereof” (CHILDREN'S MEDICAL CENTER CORPORATION, priority 2011, dated 2025).

Entries after “also recorded” stand apart in the source; their conditions may differ.

Assay [1] deals with Tsp-1 in white blood cells. Nature of the assay: Tsp-1 protein in white blood cells of peptide-injected mice, Western blot. The format is in vivo. Conditions: 5 day I.P. injections, 30 mg/kg. On the procedure:
Mice were injected with DWLPK (SEQ ID NO: 4) or a scramble peptide using 5 day I.P. injections with 30 mg/kg peptide. White blood cells were isolated, protein was extracted, and a Western blot was performed measuring Tsp-1 protein.
In general terms: In western blotting, separated proteins are transferred to a membrane and probed.

Assay [2] has as its system Tsp-1 and p53 expression in lungs. The assay is described as follows: Tumor-free mice given PC3M-LN4 conditioned media plus peptide; Tsp-1/p53 in tissue by western blot. The format is in vivo, C57Bl6 mice. Conditions: PC3M-LN4 CM in combination with peptide; Western blot, FIG. 3. On the procedure:
For tumor-free analysis C57Bl6 mice were treated with 200 uL of PC3M-LN4 media alone or in combination with peptides described above at dose of 30 mg/kg/day for 5 days. After treatment the animals were sacrificed and the lungs were harvested, lysed and analyzed for Tsp-1 and p53 protein levels as described previously (Kang et al).
It was sought to determine whether there was a smaller domain within saposin A that contained the p53/Tsp-1 stimulating activity. […] C57Bl6 mice (5-6 wks old) were injected daily with 300 uL of serum free DMEM, conditioned media (CM) from non-metastatic PC3 cells, CM from metastatic PC3M-LN4 cells and PC3M-LN4 CM plus 30 mg/kg of the pegylated 6 amino acid polypeptide (PEG2000-CDWLPK (SEQ ID NO: 46)) or 30 mg/kg of the pegylated 18 amino acid polypeptide (PEG2000-[…] (SEQ ID NO: 47)). After 9 days the mice were euthanized and the lungs and livers harvested and either fixed in formalin or lysed for Western blot analysis.
Finally, the effect of substituting D-amino acids at different residues of the 4-amino acid peptide was analyzed. By Western blot analysis it was observed that substituting the first and third or second and fourth residues, in combination, had no effect on the Tsp-1 stimulating activity in vitro. These peptides were then tested in the tumor-free animal model described above. The normal 4-amino acid peptide and the D-amino acid substituted peptides were injected in combination with conditioned media from PC3M-LN4 cells in adult C57Bl6 mice for 4 days at a dose of 10 or 30 mg/kg/day via i.p. injection. Mice were sacrificed 24 hours after the treatment on day 4. The lungs of these mice were harvested and analyzed the Tsp-1 expression by Western blot analysis. […]
Methods: 18 C57Bl6 mice were injected with Ac-dWlP-amide (SEQ ID NO: 132) at a dose of 30 mg/kg in a volume of 100 μL via intraperitoneal (i.p) injections in serum starved conditioned media from PC3M-LN4 prostate cancer cells. […] The relative intensity of the Tsp-1 (normalized to β-Actin) bands were determined using a Bio-Rad Chemi-Doc XRS system.

Assay [3] has as its system Tsp-1 and p53 expression in prostate fibroblasts. Nature of the assay: Tsp-1 and p53 expression in prostate fibroblasts treated with peptides, western blot. The format is cell-based. The settings on record: FIG. 2; compared with the longer peptide of the 35-40 region. On the procedure: Methods of assaying the effects of a polypeptide described herein on Tsp-1 and p53 expression are described herein. Briefly, a control Psap alongside a test polypeptide, is applied to a cell culture of prostate fibroblasts. The conditioned media from PC3M-LN4 (LN4) and PC3 cells are used as controls, with PC3 as positive/stimulating control and LN4 as negative/inhibiting controls. After a period of incubation (˜16 h), the cells are harvested, rinsed, and lysed. The lysates are analyzed for the level of Tsp-1 and p53 expression by western blot analyses, with β-actin as the internal lysate protein loading control.
These peptides were used to treat prostate and lung fibroblasts in vitro at a concentration of 10 ug/mL for 16 hours in ATCC-specified media supplemented with 0.1% FBS. Tsp-1 and p53 expression was analyzed by western blot as described previously (Kang, Y., et al., (2003) Cancer Cell 3:537-549.)

Regarding “DWLPK [5-amino acid peptide corresponding to residues 36-40 of saposin A]”, the “Tsp-1 protein in white blood cells” value in assay [1] is listed as “upregulated; also recorded: increased Tsp-1 expression”. Moreover, in assay [2], the “Tsp-1 and p53 expression in the lungs above basal levels” value is on record as 6 fold. In addition, the “ability to stimulate Tsp-1 in prostate fibroblasts after removing a terminal residue” value in assay [3] is reported as “increased the ability of the resulting 5-amino acid peptide to stimulate Tsp-1”.
